In the assay the target is T1, human LCE (Homo sapiens, UniProt Q9H5J4).
T1 sequence (Q9H5J4 1-265): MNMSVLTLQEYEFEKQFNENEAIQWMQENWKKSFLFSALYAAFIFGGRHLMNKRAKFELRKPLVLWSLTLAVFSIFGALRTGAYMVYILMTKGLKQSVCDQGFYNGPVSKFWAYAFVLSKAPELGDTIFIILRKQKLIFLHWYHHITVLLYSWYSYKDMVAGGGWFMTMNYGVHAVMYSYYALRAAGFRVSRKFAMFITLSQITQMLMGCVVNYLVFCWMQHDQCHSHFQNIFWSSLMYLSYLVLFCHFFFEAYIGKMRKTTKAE
In words: LCE enzyme activity inhibition test. The format is biochemical. As for the experimental part: Pharmacological Test Example 1 (LCE Enzyme Activity Inhibition Test)
A test compound was dissolved in dimethylsulfoxide (DMSO) to 10 mM, and further diluted with DMSO to prepare a 1000-fold concentrated solution, compared with the evaluated concentration. The LCE enzyme activity inhibition test was carried out according to a modification of the method of Moon (J. Biol. Chem., Vol. 276, pp. 45358-45366 (2001)) et al. Specifically, the diluted test compound was added to a 96-well assay plate (Corning, 96-well assay block) at 1.0 μL per well, and then 50 μL of phosphate buffer solution (100 mM potassium phosphate buffer solution (pH 6.5)), 25 μL of substrate solution (100 mM potassium phosphate buffer solution (pH 6.5)), 4.0 μM rotenone, 80 μM fatty acid free bovine serum albumin, 160 μM palmitoyl-CoA 80 μM malonyl-CoA, and 3.5 μM [^14C]-malonyl-CoA (1.92 GBq/mmol, manufactured by Amersham) were added to each well. Further, 25 μL of enzyme solution (100 mM potassium phosphate buffer solution (pH 6.5), 100 μg/mL human LCE) was added thereto. The plate was hermetically closed at the top with a seal, and then incubated with gentle agitation by shaking at 37° C. for 90 minutes. Subsequently, 100 μL of 5N HCl was added to each well, and the assay plate was agitated for 5 minutes at room temperature to stop the enzymatic reaction and also hydrolyze acyl-CoA. Subsequently, the enzymatic reaction solution of each well was adsorbed on each well of a 96-well GF/C filter plate (PerkinElmer, UniFilter 96 GF/C) that had been previously dipped in water. The wells were washed with water to remove unabsorbed malonyl-CoA, and the GF/C filter plate was dried at 50° C. for 60 minutes. Subsequently, 30 μL of scintillator (PerkinElmer, MicroScinti 0) was added to each well, and the plate was sealed at the top. Using a microplate scintillation counter (PerkinElmer, TopCount), the radiation activity of the fixed [^14C] was measured and obtained as the enzyme activity. The human LCE enzyme inhibitory activity of a test compound was calculated based on the radio activity in the well containing test-compound-free DMSO as a control. Compounds of the invention were examined according to this assay.

The mark [1] stands for this setting: human LCE, [14C]-malonyl-CoA and palmitoyl-CoA substrate, 37° C. for 90 minutes, pH 6.5, read-out: IC50.

Where two headings read alike, the source gives them in different places.

As to `O=C(Nc1ccc(C(F)(F)F)cc1)N1C2CCC1CC(S(=O)(=O)c1ccccc1)C2` (centres unmarked) [Example 1, 3-phenylsulfonyl-N-[(4-trifluoromethyl)phenyl]-8-azabicyclo[3.2.1]octane-8-carboxamide], under setting [1], the concentration for half-maximal inhibition (IC50) (usually the concentration that inhibits the measured activity by half) is 98 nM.
On the same count and under the same terms, to `O=C(Nc1ccc(C(F)(F)F)cc1)N1C2CCC1CC(S(=O)(=O)c1ccc(F)cc1)C2` (centres unmarked) [Example 2, 3-(4-fluorophenyl)sulfonyl-N-[(4-trifluoromethyl)phenyl]-8-azabicyclo[3.2.1]octane-8-carboxamide] belongs 108 nM.
`O=C(Nc1ccc(C(F)(F)F)cc1)N1C2CCC1CC(S(=O)(=O)c1ccccn1)C2` (centres unmarked) [Example 9, 3-(pyridin-2-ylsulfonyl)-N-[(4-trifluoromethyl)phenyl]-8-azabicyclo[3.2.1]octane-8-carboxamide] registered an IC50 of 92 nM.
Take `O=C(Nc1ccc(C(F)(F)F)cc1)N1C2CCC1CC(S(=O)(=O)c1ncccn1)C2` (centres unmarked) [Example 12, 3-(pyrimidin-2-ylsulfonyl)-N-[(4-trifluoromethyl)phenyl]-8-azabicyclo[3.2.1]octane-8-carboxamide]: under setting [1], the concentration for half-maximal inhibition (IC50) was found to be 100 nM.
In the case of `CC(C)c1ccc(NC(=O)N2C3CCC2CC(S(=O)(=O)c2ccccc2)C3)cc1` (centres unmarked) [Example 16, N-(4-isopropylphenyl)-3-phenylsulfonyl-8-azabicyclo[3.2.1]octane-8-carboxamide], under setting [1], the half-inhibitory concentration (IC50) was determined as 29 nM.
`O=C(Nc1ccc(C(F)(F)F)nc1)N1C2CCC1CC(S(=O)(=O)c1ccccc1)C2` (centres unmarked) [Example 32, 3-phenylsulfonyl-N-[6-(trifluoromethyl)pyridin-3-yl]-8-azabicyclo[3.2.1]octane-8-carboxamide]: the IC50 under setting [1] came out at 127 nM.
For `O=C(Nc1cncc(C(F)(F)F)c1)N1C2CCC1CC(S(=O)(=O)c1ccccc1)C2` (centres unmarked) [Example 33, 3-phenylsulfonyl-N-[5-(trifluoromethyl)pyridin-3-yl]-8-azabicyclo[3.2.1]octane-8-carboxamide], the concentration for half-maximal inhibition (IC50) under setting [1] was determined as 103 nM.
In the case of `O=C(Nc1ccc(C(F)(F)F)cn1)N1C2CCC1CC(S(=O)(=O)c1ncccn1)C2` (centres unmarked) [Example 35], under setting [1], the half-inhibitory concentration (IC50) was determined as 194 nM.
Turning to `CC(C)c1ccc(NC(=O)N2C3CCC2CC(S(=O)(=O)c2ccccn2)C3)cc1` (centres unmarked) [Example 36, N-(4-isopropylphenyl)-3-(pyridin-2-ylsulfonyl)-8-azabicyclo[3.2.1]octane-8-carboxamide], the IC50 under setting [1] amounted to 32 nM.
With `CC(C)c1ccc(NC(=O)N2C3CCC2CC(S(=O)(=O)c2ncccn2)C3)cc1` (centres unmarked) [Example 37, N-(4-isopropylphenyl)-3-(pyrimidin-2-ylsulfonyl)-8-azabicyclo[3.2.1]octane-8-carboxamide], the IC50 under setting [1] was found to be 22 nM.
For the molecule `CC(C)(C)c1ccc(NC(=O)N2C3CCC2CC(S(=O)(=O)c2ccccn2)C3)cc1` (centres unmarked) [Example 40, N-(4-tert-butylphenyl)-3-(pyridin-2-ylsulfonyl)-8-azabicyclo[3.2.1]octane-8-carboxamide], under setting [1], the IC50 worked out at 125 nM.

Source of the values: patent US8163898B2, “4-sulfonylpiperidine derivatives” (MSD K. K., priority 2007, dated 2012).
